Laboratory results from PMC8413292, “Small-molecule polymerase inhibitor protects non-human primates from measles and reduces shedding” (Nature Communications, 2021).
Several values for one entry are separate records, joined by “and”; a condition that tells them apart may be missing. Equal entries are not always repeated.

Legend:
[1] = test system: MeV; conditions: depending on the MeV-strain; read-out: in vitro EC50; cited from earlier work
[2] = test system: MV/FrankfurtMain.DEU/17.11 (genotype D8); assay: PBMC-associated viremia titers (limited dilution, TCID50/10^6 PBMCs); type: in vivo, squirrel monkeys (Saimiri sciureus); conditions: for Viral titers: individual animals
Experimental: White blood cell counts, viral load quantification in PBMCs, and quantification of neutralizing antibody titers were performed as follows: for white blood cell counts, blood was diluted 1:100 in 3% acetic acid and cells were counted using a Neubauer chamber. For viral load quantification in PBMCs, blood was centrifuged at 3000 rpm for 15 min and serum was frozen at −20 °C until further use. Red blood cell lysis was performed and the remaining PBMCs were counted using a Neubauer chamber. Viral titers in PBMCs were quantified in quadruplicates using limited dilution method and calculated as TCID50/10^6 PBMCs. Neutralizing antibody titers were quantified by incubating MeV with 2-fold serial dilutions of the respective serum for 20 min at room temperature in quadruplicates. Vero/hSLAM cells were added and incubated for 3 days at 37 °C. Neutralizing antibody titers are expressed as the reciprocal of the highest serum dilution showing no signs of infection. For virus titration from throat swabs, swabs were placed in 150 μl DMEM with 3% penicillin/streptomycin and the titer was quantified by limited dilution method.

## Cn1nc(C(F)(F)F)cc1C(=O)Nc1ccc(S(=O)(=O)N2CCCC[C@H]2CCN2CCOCC2)cc1 [ERDRP-0519]
[1]
  EC50: 70 to 300 nM
[2]; day 3 therapeutic administration
  effect on PBMC-associated virus replication: effectively suppressed virus replication
[2]; prophylactic group, day 3
  Viral titers: 1.745 log10(TCID50/106 PBMCs)
[2]; prophylactic group, day 7
  Viral titers: 1.509 log10(TCID50/106 PBMCs) and 0 log10(TCID50/106 PBMCs)
[2]; prophylactic group, day 10
  Viral titers: 1.807 log10(TCID50/106 PBMCs)
[2]; prophylactic group, day 17
  Viral titers: 0.7747 log10(TCID50/106 PBMCs)
[2]; prophylactic group, day 21
  Viral titers: 2.352 log10(TCID50/106 PBMCs)
[2]; prophylactic treatment
  decrease of viremia titers on average compared to untreated animals: up to 250 fold
[2]; prophylactic, Row 1 (1st of 7 time points)
  PBMC Titers, group mean (Mean 2): 0
[2]; prophylactic, Row 2 (2nd of 7 time points)
  PBMC Titers, group mean (Mean 2): 0.2908
[2]; prophylactic, Row 3 (3rd of 7 time points)
  PBMC Titers, group mean (Mean 2): 0.2514
[2]; prophylactic, Row 4 (4th of 7 time points)
  PBMC Titers, group mean (Mean 2): 0.3012
[2]; prophylactic, Row 5 (5th of 7 time points)
  PBMC Titers, group mean (Mean 2): 0
[2]; prophylactic, Row 6 (6th of 7 time points)
  PBMC Titers, group mean (Mean 2): 0.1283
[2]; prophylactic, Row 7 (7th of 7 time points)
  PBMC Titers, group mean (Mean 2): 0.3917
[2]; therapeutic (d3) group, day 3
  Viral titers: 1.097 log10(TCID50/106 PBMCs) and 1.77 log10(TCID50/106 PBMCs)
[2]; therapeutic (d3) group, day 7
  Viral titers: 0.7905 log10(TCID50/106 PBMCs) and 1.004 log10(TCID50/106 PBMCs) and 2.281 log10(TCID50/106 PBMCs) and 0 log10(TCID50/106 PBMCs)
[2]; therapeutic (d3) group, day 10
  Viral titers: 1.35 log10(TCID50/106 PBMCs) and 0.8861 log10(TCID50/106 PBMCs) and 2.045 log10(TCID50/106 PBMCs)
[2]; therapeutic (d3) group, day 14
  Viral titers: 0.7375 log10(TCID50/106 PBMCs)
[2]; therapeutic (d3), Row 1 (1st of 7 time points)
  PBMC Titers, group mean (Mean 2): 0
[2]; therapeutic (d3), Row 2 (2nd of 7 time points)
  PBMC Titers, group mean (Mean 2): 0.4783
[2]; therapeutic (d3), Row 3 (3rd of 7 time points)
  PBMC Titers, group mean (Mean 2): 0.6785
[2]; therapeutic (d3), Row 4 (4th of 7 time points)
  PBMC Titers, group mean (Mean 2): 0.7141
[2]; therapeutic (d3), Row 5 (5th of 7 time points)
  PBMC Titers, group mean (Mean 2): 0.1233
[2]; therapeutic (d3), Row 6 (6th of 7 time points)
  PBMC Titers, group mean (Mean 2): 0
[2]; therapeutic (d3), Row 7 (7th of 7 time points)
  PBMC Titers, group mean (Mean 2): 0
[2]; therapeutic (d7) group, day 3
  Viral titers: 0.6162 log10(TCID50/106 PBMCs) and 0.7122 log10(TCID50/106 PBMCs) and 0.8794 log10(TCID50/106 PBMCs) and 0.6642 log10(TCID50/106 PBMCs) and 1.712 log10(TCID50/106 PBMCs)
[2]; therapeutic (d7) group, day 7
  Viral titers: 2.108 log10(TCID50/106 PBMCs) (2×) and 1.9431 log10(TCID50/106 PBMCs) and 1.854 log10(TCID50/106 PBMCs) and 1.9914 log10(TCID50/106 PBMCs) and 1.699 log10(TCID50/106 PBMCs)
[2]; therapeutic (d7) group, day 10
  Viral titers: 2.513 log10(TCID50/106 PBMCs) and 2.092 log10(TCID50/106 PBMCs) and 2.1549 log10(TCID50/106 PBMCs) and 2.936 log10(TCID50/106 PBMCs) and 2.626 log10(TCID50/106 PBMCs) and 2.438 log10(TCID50/106 PBMCs)
[2]; therapeutic (d7) group, day 14
  Viral titers: 0.7959 log10(TCID50/106 PBMCs) and 0.3979 log10(TCID50/106 PBMCs) and 1.735 log10(TCID50/106 PBMCs)
[2]; therapeutic (d7) group, day 17
  Viral titers: 1.174 log10(TCID50/106 PBMCs) and 0.6271 log10(TCID50/106 PBMCs)
[2]; therapeutic (d7), Row 1 (1st of 7 time points)
  PBMC Titers, group mean (Mean 2): 0
[2]; therapeutic (d7), Row 2 (2nd of 7 time points)
  PBMC Titers, group mean (Mean 2): 0.7636
[2]; therapeutic (d7), Row 3 (3rd of 7 time points)
  PBMC Titers, group mean (Mean 2): 1.95
[2]; therapeutic (d7), Row 4 (4th of 7 time points)
  PBMC Titers, group mean (Mean 2): 2.46
[2]; therapeutic (d7), Row 5 (5th of 7 time points)
  PBMC Titers, group mean (Mean 2): 0.49
[2]; therapeutic (d7), Row 6 (6th of 7 time points)
  PBMC Titers, group mean (Mean 2): 0.3
[2]; therapeutic (d7), Row 7 (7th of 7 time points)
  PBMC Titers, group mean (Mean 2): 0
[2]; treatment initiated at day 7 post-infection, maximum on day 10
  effect on height of maximum virus load: no significant effect on the height of maximum virus load
[2]; untreated vs. prophylactic, Row 1 (1st of 7 time points)
  PBMC Titers, Mean Diff, untreated vs. treated: 0
[2]; untreated vs. prophylactic, Row 2 (2nd of 7 time points)
  PBMC Titers, Mean Diff, untreated vs. treated: 0.1201
[2]; untreated vs. prophylactic, Row 3 (3rd of 7 time points)
  PBMC Titers, Mean Diff, untreated vs. treated: 2.622
[2]; untreated vs. prophylactic, Row 4 (4th of 7 time points)
  PBMC Titers, Mean Diff, untreated vs. treated: 1.541
[2]; untreated vs. prophylactic, Row 5 (5th of 7 time points)
  PBMC Titers, Mean Diff, untreated vs. treated: 0.3677
[2]; untreated vs. prophylactic, Row 6 (6th of 7 time points)
  PBMC Titers, Mean Diff, untreated vs. treated: 0.1017
[2]; untreated vs. prophylactic, Row 7 (7th of 7 time points)
  PBMC Titers, Mean Diff, untreated vs. treated: -0.3917
[2]; untreated vs. therapeutic (d3), Row 1 (1st of 7 time points)
  PBMC Titers, Mean Diff, untreated vs. treated: 0
[2]; untreated vs. therapeutic (d3), Row 2 (2nd of 7 time points)
  PBMC Titers, Mean Diff, untreated vs. treated: -0.06733
[2]; untreated vs. therapeutic (d3), Row 3 (3rd of 7 time points)
  PBMC Titers, Mean Diff, untreated vs. treated: 2.195
[2]; untreated vs. therapeutic (d3), Row 4 (4th of 7 time points)
  PBMC Titers, Mean Diff, untreated vs. treated: 1.128
[2]; untreated vs. therapeutic (d3), Row 5 (5th of 7 time points)
  PBMC Titers, Mean Diff, untreated vs. treated: 0.2444
[2]; untreated vs. therapeutic (d3), Row 6 (6th of 7 time points)
  PBMC Titers, Mean Diff, untreated vs. treated: 0.23
[2]; untreated vs. therapeutic (d3), Row 7 (7th of 7 time points)
  PBMC Titers, Mean Diff, untreated vs. treated: 0
[2]; untreated vs. therapeutic (d7), Row 1 (1st of 7 time points)
  PBMC Titers, Mean Diff, untreated vs. treated: 0
[2]; untreated vs. therapeutic (d7), Row 2 (2nd of 7 time points)
  PBMC Titers, Mean Diff, untreated vs. treated: -0.3527
[2]; untreated vs. therapeutic (d7), Row 3 (3rd of 7 time points)
  PBMC Titers, Mean Diff, untreated vs. treated: 0.9232
[2]; untreated vs. therapeutic (d7), Row 4 (4th of 7 time points)
  PBMC Titers, Mean Diff, untreated vs. treated: -0.6175
[2]; untreated vs. therapeutic (d7), Row 5 (5th of 7 time points)
  PBMC Titers, Mean Diff, untreated vs. treated: -0.1223
[2]; untreated vs. therapeutic (d7), Row 6 (6th of 7 time points)
  PBMC Titers, Mean Diff, untreated vs. treated: -0.06996
[2]; untreated vs. therapeutic (d7), Row 7 (7th of 7 time points)
  PBMC Titers, Mean Diff, untreated vs. treated: 0
